pIC50: −log10 of the molar value. Like-named read-outs stand apart in the source and are kept apart here.

Experiment [1] has as its target T1, AHR (Homo sapiens, UniProt P35869).
T1 construct: U87 MG glioblastoma cells (ATCC #HTB-14) endogenously expressing AHR; endogenous in cells; host or cells: U87 MG glioblastoma cells (ATCC #HTB-14)
T1 sequence (P35869 11-848): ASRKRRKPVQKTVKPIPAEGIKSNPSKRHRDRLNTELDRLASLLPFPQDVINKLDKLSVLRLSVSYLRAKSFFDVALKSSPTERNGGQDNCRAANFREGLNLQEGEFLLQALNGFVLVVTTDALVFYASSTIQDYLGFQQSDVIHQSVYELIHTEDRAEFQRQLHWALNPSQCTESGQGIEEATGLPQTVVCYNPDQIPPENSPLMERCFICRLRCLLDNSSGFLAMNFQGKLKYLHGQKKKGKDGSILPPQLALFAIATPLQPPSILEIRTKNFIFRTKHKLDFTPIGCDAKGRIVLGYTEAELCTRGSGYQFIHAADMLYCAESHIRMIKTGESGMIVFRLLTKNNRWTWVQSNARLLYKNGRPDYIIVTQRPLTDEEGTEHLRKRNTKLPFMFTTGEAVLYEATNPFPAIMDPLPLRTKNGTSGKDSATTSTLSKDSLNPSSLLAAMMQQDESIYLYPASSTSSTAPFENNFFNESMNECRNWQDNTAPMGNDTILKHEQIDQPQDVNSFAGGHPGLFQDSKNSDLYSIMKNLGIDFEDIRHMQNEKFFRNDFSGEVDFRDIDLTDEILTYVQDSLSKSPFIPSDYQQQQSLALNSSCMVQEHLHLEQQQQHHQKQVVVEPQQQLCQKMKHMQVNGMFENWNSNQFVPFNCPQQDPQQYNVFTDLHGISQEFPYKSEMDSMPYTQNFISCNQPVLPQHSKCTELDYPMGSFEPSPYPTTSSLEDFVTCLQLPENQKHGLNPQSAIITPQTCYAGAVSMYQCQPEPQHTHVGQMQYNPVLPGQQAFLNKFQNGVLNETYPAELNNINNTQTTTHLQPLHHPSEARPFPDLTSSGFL
Put plainly: In vitro assay 1: antagonism in human cell line (AHR transactivation, firefly luciferase reporter, kynurenic acid prestimulated). The experiment is classed as cell-based. As to conditions: AHR Antagonism Human IC50 [M], firefly luciferase reporter. In short, it runs like this: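 Antagonism measured as loss of kynurenic acid-driven firefly luciferase from DRE reporter in stably transfected U87 MG cells; constitutive Renilla signal monitors cytotoxicity. Positive/negative control normalization, staurosporine 5 μM with 150 μM kynurenic acid as inhibition control; replicates given as mean or median.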

In experiment [2] the target is T2, AHR (Mus musculus, UniProt P30561).
T2 sequence (P30561 1-848 P471L/N533S/M589L): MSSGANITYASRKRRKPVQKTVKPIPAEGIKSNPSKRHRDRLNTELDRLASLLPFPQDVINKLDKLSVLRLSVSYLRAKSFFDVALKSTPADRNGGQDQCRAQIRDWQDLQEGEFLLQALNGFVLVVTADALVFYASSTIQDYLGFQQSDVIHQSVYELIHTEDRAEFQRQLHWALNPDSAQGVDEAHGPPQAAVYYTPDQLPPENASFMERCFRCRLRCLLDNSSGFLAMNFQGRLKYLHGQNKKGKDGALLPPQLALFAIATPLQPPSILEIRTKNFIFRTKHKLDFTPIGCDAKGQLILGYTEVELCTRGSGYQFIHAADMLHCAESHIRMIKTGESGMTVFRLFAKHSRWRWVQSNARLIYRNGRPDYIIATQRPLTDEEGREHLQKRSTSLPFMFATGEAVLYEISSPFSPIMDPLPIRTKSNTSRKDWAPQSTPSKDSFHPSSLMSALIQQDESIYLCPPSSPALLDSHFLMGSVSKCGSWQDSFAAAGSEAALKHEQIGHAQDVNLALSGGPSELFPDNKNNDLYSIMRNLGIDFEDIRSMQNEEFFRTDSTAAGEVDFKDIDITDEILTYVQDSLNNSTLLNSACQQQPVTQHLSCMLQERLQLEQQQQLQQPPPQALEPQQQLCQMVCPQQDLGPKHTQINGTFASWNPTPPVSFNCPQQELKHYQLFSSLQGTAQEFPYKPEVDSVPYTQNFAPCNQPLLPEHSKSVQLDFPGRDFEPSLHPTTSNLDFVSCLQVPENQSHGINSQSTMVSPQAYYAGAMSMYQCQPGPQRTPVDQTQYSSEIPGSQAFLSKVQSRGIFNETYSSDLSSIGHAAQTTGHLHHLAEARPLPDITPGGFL
The experiment is described as follows: In vitro assay 3: antagonism in mouse cell line (AHR transactivation, firefly luciferase reporter, kynurenic acid prestimulated). The experiment is classed as cell-based. In short, it runs like this: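 Antagonism read as reduced firefly luciferase signal (SteadyGlo) from a stably transfected AHR/DRE reporter in a mouse line prestimulated with kynurenic acid. Data normalized to controls, the full-inhibition control being cells without kynurenic acid; multiple determinations given as average or median values.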

Setting [3] is: Hepa 1c1c7 cells, 200 μM kynurenic acid, 20 hours, firefly luciferase reporter, read-out: AHR Antagonism Mouse IC50.

Turning to `C[C@@H](Nc1nc2c(Br)cccc2c2nc(-c3cnn(C)c3)nn12)C(=O)N1CCN(C(=O)OC(C)(C)C)CC1` [Example 886, tert-butyl 4-{N-[7-bromo-2-(1-methyl-1H-pyrazol-4-yl)[1,2,4]triazolo[1,5-c]quinazolin-5-yl]-D-alanyl}piperazine-1-carboxylate], the IC50 at AHR [1] was 6.83e-08 M. Moreover, the pIC50 on AHR [2] (setting [3]) was 7.00.

Turning to `COc1ccc(-c2nc3c4cccc(Br)c4nc(N[C@H](C)C(=O)NCCN(C)C(=O)OC(C)(C)C)n3n2)cc1` [Example 887, tert-butyl [2-({N-[7-bromo-2-(4-methoxyphenyl)[1,2,4]triazolo[1,5-c]quinazolin-5-yl]-D-alanyl}amino)ethyl]methylcarbamate], the concentration for half-maximal inhibition (IC50) at AHR [1] came out at 1.37e-09 M. For the same compound, the pIC50 at AHR [2] (read-out: AHR Antagonism Mouse IC50, Hepa 1c1c7 cells, 200 μM kynurenic acid, 20 hours, firefly luciferase reporter) was 8.00.

On AHR [1], `C[C@@H](Nc1nc2c(Br)cccc2c2nc(-c3cnn(C)c3)nn12)C(=O)NCCN(C)C(=O)OC(C)(C)C` [Example 888, tert-butyl [2-({N-[7-bromo-2-(1-methyl-1H-pyrazol-4-yl)[1,2,4]triazolo[1,5-c]quinazolin-5-yl]-D-alanyl}amino)ethyl]methylcarbamate] gave an IC50 of 1.73e-08 M. Moreover, the pIC50 at AHR [2] (setting [3]) is 7.61.

On to `COc1ccc(-c2nc3c4ccccc4nc(N[C@H](C)C(=O)NCCN(C)C(=O)OC(C)(C)C)n3n2)cc1` [Example 889, tert-butyl [2-({N-[2-(4-methoxyphenyl)[1,2,4]triazolo[1,5-c]quinazolin-5-yl]-D-alanyl}amino)ethyl]methylcarbamate], for which half-maximal inhibition against AHR [1] (IC50) required 3.9e-09 M. On AHR [2] (setting [3]), the pIC50 was 8.35.

On to `COc1ccc(-c2nc3c4cccc(Br)c4nc(N[C@H](C)C(=O)NCCN4CCN(C(=O)OC(C)(C)C)CC4)n3n2)cc1` [Example 890, tert-butyl 4-[2-({N-[7-bromo-2-(4-methoxyphenyl)[1,2,4]triazolo[1,5-c]quinazolin-5-yl]-D-alanyl}amino)ethyl]piperazine-1-carboxylate], for which inhibition against AHR [1] was half-maximal at 4.05e-09 M (IC50). Moreover, on AHR [2] (setting [3]), the pIC50 was 8.03.

In turn, `C[C@@H](Nc1nc2c(Br)cccc2c2nc(-c3cnn(C)c3)nn12)C(=O)NCCN1CCN(C(=O)OC(C)(C)C)CC1` [Example 891, tert-butyl 4-[2-({N-[7-bromo-2-(1-methyl-1H-pyrazol-4-yl)[1,2,4]triazolo[1,5-c]quinazolin-5-yl]-D-alanyl}amino)ethyl]piperazine-1-carboxylate] gave an IC50 on AHR [1] of 5.75e-08 M. The pIC50 on AHR [2] (setting [3]) was 7.18.

`COC(=O)N1CCN(C(=O)[C@@H](C)Nc2nc3c(Br)cccc3c3nc(-c4cnn(C)c4)nn23)CC1` [Example 893, methyl 4-{N-[7-bromo-2-(1-methyl-1H-pyrazol-4-yl)[1,2,4]triazolo[1,5-c]quinazolin-5-yl]-D-alanyl}piperazine-1-carboxylate] yielded an IC50 against AHR [1] of 2.65e-08 M. Further, the pIC50 on AHR [2] (setting [3]) is 7.74.

As for `COC(=O)N1CCN(C(=O)[C@@H](C)Nc2nc3c(Br)cccc3c3nc(-c4ccc(OC)cc4)nn23)CC1` [Example 894, methyl 4-{N-[7-bromo-2-(4-methoxyphenyl)[1,2,4]triazolo[1,5-c]quinazolin-5-yl]-D-alanyl}piperazine-1-carboxylate], 2.01e-09 M corresponded to half-maximal inhibition on AHR [1] (IC50). Also, the pIC50 on AHR [2] (setting [3]) is 8.88.

For `COc1ccc(-c2nc3c4cccc(Br)c4nc(N[C@H](C)C(=O)NCCN4CCCCC4)n3n2)cc1` [Example 895, N^2-[7-bromo-2-(4-methoxyphenyl)[1,2,4]triazolo[1,5-c]quinazolin-5-yl]-N-[2-(piperidin-1-yl)ethyl]-D-alaninamide], half-maximal inhibition at AHR [1] (IC50) required 1.18e-08 M. Moreover, the pIC50 at AHR [2] (setting [3]) was 7.76.

In turn, `C[C@@H](Nc1nc2c(Br)cccc2c2nc(-c3cnn(C)c3)nn12)C(=O)NCCN1CCCCC1` [Example 896, N^2-[7-bromo-2-(1-methyl-1H-pyrazol-4-yl)[1,2,4]triazolo[1,5-c]quinazolin-5-yl]-N-[2-(piperidin-1-yl)ethyl]-D-alaninamide] yielded an IC50 against AHR [1] of 2.72e-07 M. Besides, the pIC50 on AHR [2] (setting [3]) was 6.88.

Take `COc1ccc(-c2nc3c4ccccc4nc(N[C@H](C)C(=O)NCCN4CCCCC4)n3n2)cc1` [Example 897, N^2-[2-(4-methoxyphenyl)[1,2,4]triazolo[1,5-c]quinazolin-5-yl]-N-[2-(piperidin-1-yl)ethyl]-D-alaninamide]: the IC50 against AHR [1] is 4.02e-08 M. Moreover, at AHR [2] (setting [3]), the negative logarithm of the IC50 (pIC50) is 7.55.

`C[C@@H](Nc1nc2c(Br)cccc2c2nc(-c3cnn(C)c3)nn12)C(=O)N1C[C@H]2C[C@@H]1CO2` [Example 898, (2R)-2-{[7-bromo-2-(1-methyl-1H-pyrazol-4-yl)[1,2,4]triazolo[1,5-c]quinazolin-5-yl]amino}-1-[(1R,4R)-2-oxa-5-azabicyclo[2.2.1]heptan-5-yl]propan-1-one] had an IC50 at AHR [1] of 1.2e-07 M. Further, the pIC50 at AHR [2] (setting [3]) is 7.60.

As to `COc1ccc(-c2nc3c4cccc(Br)c4nc(N[C@H](C)C(=O)N4C[C@H]5C[C@@H]4CO5)n3n2)cc1` [Example 899, (2R)-2-{[7-bromo-2-(4-methoxyphenyl)[1,2,4]triazolo[1,5-c]quinazolin-5-yl]amino}-1-[(1R,4R)-2-oxa-5-azabicyclo[2.2.1]heptan-5-yl]propan-1-one], on AHR [1], the IC50 is 1.12e-09 M. Also, on AHR [2] (setting [3]), the pIC50 was 9.05.

`C[C@@H](Nc1nc2c(Br)cccc2c2nc(-c3cnn(C)c3)nn12)C(=O)N1C[C@@H]2C[C@H]1CN2C` [Example 900] yielded an IC50 at AHR [1] of 4.4e-08 M. Besides, the pIC50 on AHR [2] (setting [3]) is 7.14.

Consider `COc1ccc(-c2nc3c4cccc(Br)c4nc(N[C@H](C)C(=O)N4C[C@@H]5C[C@H]4CN5C)n3n2)cc1` [Example 901, (2R)-2-{[7-bromo-2-(4-methoxyphenyl)[1,2,4]triazolo[1,5-c]quinazolin-5-yl]amino}-1-[(1S,4S)-5-methyl-2,5-diazabicyclo[2.2.1]heptan-2-yl]propan-1-one], for which, at AHR [1], the IC50 worked out at 2.88e-09 M. The pIC50 at AHR [2] (setting [3]) was 8.32.

For the compound `C[C@@H](Nc1nc2c(Br)cccc2c2nc(-c3cnn(C)c3)nn12)C(=O)N1C[C@H]2C[C@@H]1CN2C` [Example 902], the IC50 against AHR [1] was determined as 8e-08 M. Also, the pIC50 at AHR [2] (setting [3]) was 7.02.

`COc1ccc(-c2nc3c4cccc(Br)c4nc(N[C@H](C)C(=O)N4C[C@H]5C[C@@H]4CN5C)n3n2)cc1` [Example 903, (2R)-2-{[7-bromo-2-(4-methoxyphenyl)[1,2,4]triazolo[1,5-c]quinazolin-5-yl]amino}-1-[(1R,4R)-5-methyl-2,5-diazabicyclo[2.2.1]heptan-2-yl]propan-1-one] displayed an IC50 at AHR [1] of 4.09e-09 M. Moreover, the pIC50 at AHR [2] (setting [3]) is 8.18.

At AHR [1], `C[C@@H]1CN(C(=O)[C@@H](C)Nc2nc3c(Br)cccc3c3nc(-c4cnn(C)c4)nn23)CCO1` [Example 906, (2R)-2-{[7-bromo-2-(1-methyl-1H-pyrazol-4-yl)[1,2,4]triazolo[1,5-c]quinazolin-5-yl]amino}-1-[(2R)-2-methylmorpholin-4-yl]propan-1-one] gave an IC50 of 2.3e-08 M. Besides, on AHR [2] (setting [3]), the pIC50 is 7.71.

These data come from patent publication US20230113037A1 (Bayer Aktiengesellschaft, priority 2019, published 2023).
